Tests used:
[1] = molecular target: T1, progesterone receptor (PR) (Homo sapiens, UniProt P06401); assay: T47D alkaline phosphatase (AP) potency assay; assay type: cell-based; settings: for EC50 / T47D alkaline phosphatase assay EC50: agonist response, 48 h incubation; for EC50 / T47D alkaline phosphatase assay EC50 / IC50: average of at least n = 3 ± SD; for IC50: inhibition of progesterone
T1 construct: endogenous in cells; host or cells: T47D breast carcinoma cells
T1 sequence (P06401 1-933): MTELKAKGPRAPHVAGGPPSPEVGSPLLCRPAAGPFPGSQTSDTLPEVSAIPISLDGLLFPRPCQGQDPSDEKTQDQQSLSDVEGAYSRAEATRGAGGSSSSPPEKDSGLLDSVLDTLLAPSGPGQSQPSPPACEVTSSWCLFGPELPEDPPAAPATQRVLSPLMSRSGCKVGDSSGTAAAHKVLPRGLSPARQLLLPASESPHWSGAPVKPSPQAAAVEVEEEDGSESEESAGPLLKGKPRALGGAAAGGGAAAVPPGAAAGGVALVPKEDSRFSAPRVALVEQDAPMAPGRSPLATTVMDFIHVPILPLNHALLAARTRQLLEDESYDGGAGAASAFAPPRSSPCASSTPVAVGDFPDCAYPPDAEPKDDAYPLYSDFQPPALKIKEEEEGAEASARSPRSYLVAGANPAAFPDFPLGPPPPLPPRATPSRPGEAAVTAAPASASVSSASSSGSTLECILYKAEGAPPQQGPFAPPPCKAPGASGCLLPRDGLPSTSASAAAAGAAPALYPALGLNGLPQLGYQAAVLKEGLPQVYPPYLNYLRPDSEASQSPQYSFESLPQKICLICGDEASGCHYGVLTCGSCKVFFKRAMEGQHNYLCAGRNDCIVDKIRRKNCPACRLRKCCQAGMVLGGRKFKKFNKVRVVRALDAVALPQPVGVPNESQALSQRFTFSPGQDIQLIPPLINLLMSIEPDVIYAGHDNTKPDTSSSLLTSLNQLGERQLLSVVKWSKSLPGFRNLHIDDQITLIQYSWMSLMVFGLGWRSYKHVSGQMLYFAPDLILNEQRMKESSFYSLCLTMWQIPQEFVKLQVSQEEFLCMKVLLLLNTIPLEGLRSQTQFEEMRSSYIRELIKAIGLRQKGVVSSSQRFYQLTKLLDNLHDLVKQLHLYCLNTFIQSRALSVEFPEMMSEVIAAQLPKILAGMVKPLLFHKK
Experimental: The method described by Di Lorenzo et al was followed with minor adaptation (Di Lorenzo et al., [1991]). In brief, T47D breast carcinoma cells were seeded in 96-well plates at 50,000 cell/well in RPMI medium supplemented with 10% FBS. After overnight culture, the medium was changed to RPMI phenol red free containing 2% charcoal-stripped FBS. After 24 h, the cells were treated with progesterone (Sigma Aldrich, Gillingham, UK) or the library compounds. Progesterone and the test compounds were dissolved in DMSO (100%) and diluted into treatment medium to give a final DMSO (v/v) concentration of 0.1%. After incubation (48 h) the treatment was finalised by twice washing the plates with PBS. Cells were lysed by two freeze-thaw cycles (− 80 °C). Cellular alkaline phosphatase activity was determined by adding Femto ELISA-AP substrate (200 μL) and optical density measurements taken at 5 and 10 min intervals at a wavelength of 405 nm. Data was interpreted using Graphpad Prism (GraphPad, CA, USA) using the model: dose-response simulation/inhibition, log(agonist/inhibition) vs. response – variable slope (four parameters). For compounds where EC50 > 10,000, an antagonist profile was assumed and the experiment was repeated with the inclusion of progesterone (3 mM) with the library compound. Data shown in the supporting information (Additional file 1: Figure S32).

[2] = In vitro non-radioactive metabolite analysis and clearance in MLM; assay type: in vitro ADME, mouse
Experimental: (§1) Microsomal incubations were performed using a Hamilton Microlab Star liquid handling workstation (Hamilton Robotics, Bonaduz, Switzerland). Test compound 2 (final concentration 1 or 10 μM, 1% DMSO) was pre-incubated at 37 °C for 10 min in MLM or HLM (final concentration 1 mg/ml prepared in 10 mM PBS). Reactions were initiated by the addition of NADPH (final concentration 1 mM). Aliquots were removed from each incubation and quenched in 3 volumes of ice-cold MeOH containing internal standard olomoucine (500 nM in MeOH) at − 1, 0, 5, 15, 30 and 60 min. Incubations were conducted in singlicate. […] Terminated incubations were centrifuged at 3700 rpm at 4 °C for 30 min and supernatant taken for analysis. Microsomal incubations were analysed by liquid chromatography-tandem mass spectrometry (LC-MS/MS). This consisted of a Dionex Ultimate 3000 UHPLC system coupled to a ThermoScientific Q Exactive Plus orbitrap mass spectrometer (Thermo Fisher Scientific Inc., Waltham, USA). Chromatographic separation was achieved using an Acquity UPLC HSS T3 column (1.8 μm, 100 × 2.1 mm) (Waters, Elstree, UK) at 50 °C and a binary mobile phase gradient at a flow rate of 0.4 ml/min. Initial LC conditions comprised 10% formic acid (0.1%) in water (A), 90% methanol (B). This was ramped to […] at 12 min. Sample analysis was by positive ion electrospray ionization. The capillary voltage was 3.5 kV. Full MS/dd-MS^2 (full MS scan followed by data dependent MS/MS) and Full MS/AIF (full MS scan followed by all ion fragmentation) workflows were used in combination. Full MS was performed at a resolution of 70,000, AGC target 1 e^6; dd-MS2 at a resolution of 17,5000, AGC target 1 e^5. LC-MS response (peak area of the analyte/peak area of internal standard) was fitted to a nonlinear single exponential model using software GraphPad Prism software (v6.07, GraphPad Software, Inc., La Jolla, USA). Elimination rate constant (k) was determined and intrinsic clearance, CLint, was calculated as CLint = (V.k)/mg protein where V is the incubation volume (μl) and mg protein is the mg microsomal protein in the incubation. Identification of metabolites in microsomal incubations and elucidation of their structures was undertaken with Compound Discoverer software (v2.0.0.303, Thermo Fisher Scientific Inc., Waltham, USA).

[3] = In vitro non-radioactive metabolite analysis and clearance in HLM; assay type: in vitro ADME, human
Experimental: as §1

CC1(C)OC(=O)Nc2ccc(-c3ccc(F)nc3)cc21 [Compound 3, 6-(6-fluoropyridin-3-yl)-4,4-dimethyl-1H-benzo[d][1,3]oxazin-2(4H)-one]
EC50 [1]: > 10000 nM | T47D alkaline phosphatase assay EC50 [1]: did not induce an agonist response | IC50 [1]: 795 ± 0.25 nM

CC1(C)OC(=O)Nc2ccc(-c3cccnc3F)cc21 [Compound 1, 6-(2-fluoropyridin-3-yl)-4,4-dimethyl-1H-benzo[d][1,3]oxazin-2(4H)-one]
Clearance (CLint) in MLM ([2]; MLM 1 mg/ml, NADPH 1 mM, 37 °C): comparable clearance | Metabolite identification by mass spectrometry in MLM ([2]; MLM incubation, LC-MS/MS): defluorinated species | Clearance (CLint) in HLM ([3]; HLM 1 mg/ml, NADPH 1 mM, 37 °C): comparable clearance | Metabolite identification by mass spectrometry in HLM ([3]; HLM incubation, LC-MS/MS): defluorinated species | EC50 [1]: > 10000 nM | T47D alkaline phosphatase assay EC50 [1]: did not induce an agonist response | IC50 [1]: 844.8 ± 0.23 nM

CC1(C)OC(=S)Nc2ccc(-c3ccc(F)c(Cl)c3)cc21 [Compound 6, 6-(3-chloro-4-fluorophenyl)-4,4-dimethyl-1H-benzo[d][1,3]oxazine-2(4H)-thione]
EC50 [1]: 432.5 ± 0.24 nM | fold more potent (EC50) than oxocarbamate derivative 5 ([1]; compound 6 versus 5): ~5 fold

CC1(C)OC(=S)Nc2ccc(-c3ccc(F)nc3)cc21 [Compound 4, 6-(6-fluoropyridin-3-yl)-4,4-dimethyl-1H-benzo[d][1,3]oxazine-2(4H)-thione]
EC50 [1]: 3674 ± 0.08 nM

CC1(C)OC(=O)Nc2ccc(-c3ccc(F)c(Cl)c3)cc21 [Compound 5, 6-(3-chloro-4-fluorophenyl)-4,4-dimethyl-1H-benzo[d][1,3]oxazin-2(4H)-one]
EC50 [1]: 2294 ± 0.29 nM

Cn1c(C#N)ccc1-c1ccc2c(c1)C(C)(C)OC(=S)N2 [TNP, Tanaproget]
EC50 [1]: 0.5 nM

— PMC6328429, “Synthesis of a benzoxazinthione derivative of tanaproget and pharmacological evaluation for PET imaging of PR expression” (EJNMMI Radiopharmacy and Chemistry, 2019)
